Measurements from patent publication US20050282707A1, “Pyridinylisoxazoles and their use as herbicides” (Bayer CropScience GmbH, priority 2004, published 2005).

Tests used:
Assay type in all cases: in vivo
[1] = system: Amaranthus retroflexus; assay: Pre-emergence herbicidal action; details: 320 g of active ingredient or less per hectare, greenhouse, visual scoring after 3 to 4 weeks vs untreated controls
Text: (§1) Seeds of mono- and dicotyledonous weed plants are placed in sandy loam in cardboard pots and covered with soil. The compounds according to the invention, formulated as wettable powders or emulsifiable concentrates, are then applied, in the form of an aqueous suspension or emulsion, at a dosage of 320 g of active ingredient or less per hectare (converted), onto the surface of the covering earth, at an application rate of 600 to 800 l of water per ha (converted). Following treatment, the pots are placed in the greenhouse and maintained under good growth conditions for the weed plants. The visual scoring of the plant damage or emergence damage is made when the test plants have emerged, after an experimental period of 3 to 4 weeks, in comparison to untreated controls.

[2] = system: Setaria viridis; assay: Pre-emergence herbicidal action; details: 320 g of active ingredient or less per hectare, greenhouse, visual scoring after 3 to 4 weeks vs untreated controls
Text: as §1

[3] = system: Sinapis arvensis; assay: Pre-emergence herbicidal action; details: 320 g of active ingredient or less per hectare, greenhouse, visual scoring after 3 to 4 weeks vs untreated controls
Text: as §1

[4] = system: wheat plants; assay: Crop plant tolerance; details: application rate of 320 g, plants with two to three true leaves, greenhouse, visual scoring four to five weeks after application
Text: as §1
(§2) In further greenhouse experiments, seeds of crop plants and of monocotyledonous and dicotyledonous weed plants are placed in sandy loam, covered with soil and placed in the greenhouse until the plants have developed two to three true leaves. Then they are treated with the compounds of the formula (I) according to the invention, and compared with those disclosed in the prior art, as described above in section 1. Four to five weeks after the application and after having been left to stand in the greenhouse, visual scoring is performed. In this test, for example, the compounds of Nos: 1.44, 2.39 and 3.44, at an application rate of 320 g, lead to no damage to maize and wheat plants.

[5] = system: maize plants; assay: Crop plant tolerance; details: application rate of 320 g, plants with two to three true leaves, greenhouse, visual scoring four to five weeks after application
Text: as §1, §2

Row | Structure (SMILES) | activity against Amaranthus retroflexus [1] [%] | activity against Setaria viridis [2] [%] | activity against Sinapis arvensis [3] [%] | damage to wheat plants [4] | damage to maize plants [5]
1 | CCS(=O)(=O)c1ccc(C(=O)c2cnoc2C2CC2)c(C)n1 [1.19] | 100 | 100 | 100 | – | –
2 | Cc1nc(Cl)ccc1C(=O)c1cnoc1C1CC1 [1.39] | 100 | 100 | 100 | – | –
3 | CSc1ccc(-c2oncc2C(=O)C2CC2)c(C)n1 [2.14] | 100 | 100 | 100 | – | –
4 | CCS(=O)(=O)c1ccc(-c2oncc2C(=O)C2CC2)c(C)n1 [2.19] | 100 | 100 | 100 | – | –
5 | Cc1nc(Cl)ccc1-c1oncc1C(=O)C1CC1 [2.39] | 100 | 100 | 100 | no damage | no damage
6 | Cc1nc(C(F)(F)F)ccc1C(=O)C(C#N)C(=O)C1CC1 (stereo not shown) [3.44] | 100 | 100 | 100 | no damage | no damage
